Test results as given in article PMC4502315, “High Potency of a Novel Resveratrol Derivative, 3,3′,4,4′-Tetrahydroxy-trans-stilbene, against Ovarian Cancer Is Associated with an Oxidative Stress-Mediated Imbalance between DNA Damage Accumulation and Repair” (Oxidative Medicine and Cellular Longevity, 2015).

How the values were obtained:
catalase (CAT) = assay: CAT activity, HPMCs; format: cell-based, human; conditions: 24 h, percentage of control cells
Method: (§1) Total activity of superoxide dismutase (SOD) was measured in cell lysates with a commercially available kit (R&D Systems Europe, Abingdon, UK), while the activity of catalase (CAT) was estimated by using the OxiSelect Catalase Activity Assay Kit (Cell Biolabs Inc., San Diego, CA, USA). Both assays were performed according to the manufacturer's instructions.

HPMCs [1] = assay: SA-β-Gal activity (senescence), HPMCs; format: cell-based, human; conditions: 24 h, percentage of control cells
Method: (§2) The activity of SA-β-Gal in the cell extracts was quantified by measuring the rate of conversion of 4-methylumbelliferyl-β-D-galactopyranoside to 4-methylumbelliferone, as described in [19]. In order to visualize expression of the enzyme in the cancer cell cytoplasm, cytochemical staining for SA-β-Gal was performed according to Dimri et al..

p38 MAPK [2] = assay: p38 MAPK activation (FACE ELISA), HPMCs; format: cell-based, human; conditions: 24 h, percentage of control cells
Method: (§3) Activation of p38 MAPK was examined using the Fast Activated Cell-Based ELISA (FACE) p38 kit (Active Motif) according to the manufacturer's instructions. In brief, cells were fixed with 4% formaldehyde and incubated with a primary antibody that recognizes either phosphorylated p38 or total p38 overnight at 4°C. Then the cells were washed and incubated with a secondary HRP-conjugated antibody for 1 h at room temperature. The color reaction that developed was read using a spectrofluorometer at 450 nm wavelength.
(§4) The results were expressed as a ratio of phosphorylated to total p38 activity.

HPMCs [3] = assay: LDH release assay, HPMCs; format: cell-based, human; conditions: Homo sapiens, 24 h, CalcuSyn
HOSE cells [4] = assay: Apoptosis (Hoechst 33258), HOSE cells; format: cell-based, human; conditions: 24 h, percentage of control cells
Method: (§5) Identification of apoptosis was based on the presence of DNA condensation in cells stained with a fluorescent dye, Hoechst 33258 (Molecular Probes, Eugene, OR). Cells were grown on Lab-Tek Chamber Slides (Nunc, Roskilde, Denmark), fixed with 4% formaldehyde for 10 min and washed twice with PBS. Then the cells were incubated with Hoechst 33258 (0.1 μg/mL) for 5 min in the dark. After washing with PBS, stained nuclei were observed and counted under a Zeiss Axio Observer D1 fluorescence microscope (Carl Zeiss, Jena, Germany). The activity of caspases 3, 8, and 9 was quantified in the cell lysates using specific colorimetric kits (Abcam, Cambridge, UK) according to the manufacturer's instructions.

p38 MAPK [5] = assay: p38 MAPK activation (FACE ELISA), OVCAR-3; format: cell-based, human; conditions: 24 h, 10, 50, 100 μM tested
Method: as §3, §4

caspase-3 = assay: Caspase-3 activity in ovarian cancer cell lysates; format: cell-based, human; conditions: ovarian cancer cells (A2780, OVCAR-3, SKOV-3); 24 h
Method: as §5

HPMCs [6] = assay: Apoptosis (Hoechst 33258), HPMCs; format: cell-based, human; conditions: 24 h, percentage of control cells
Method: as §5

OVCAR-3 = assay: MTT viability assay, OVCAR-3; format: cell-based; conditions: Homo sapiens, 24 h; for IC50: CalcuSyn
Method: Cell viability was assessed with the MTT test and with lactate dehydrogenase (LDH) release assay. As per the MTT method, normal and cancer cells were seeded into 96-well plates at high density and allowed to attach overnight. Then they were incubated in a medium containing 1.25 mg/mL of the MTT salt [3-(4,5-dimethylthiazol-2-yl)-2,5-diphenyltetrazolium bromide] for 24 h at 37°C. The generated formazan was solubilized with 20% sodium dodecyl sulphate and 50% N,N-dimethylformamide. Absorbance of the converted dye was recorded at 595 nm with a reference wavelength of 690 nm.
(§6) In order to examine the effect of 3,3′,4,4′-THS on the viability of ovarian cancer cells and to compare its activity with RVT, subconfluent cultures of A2780, OVCAR-3, and SKOV-3 cells were subjected to a wide range of stilbene concentrations (0–500 μM) for 24 h; then MTT and LDH release assays were performed.

A2780 cells [7] = assay: SA-β-Gal activity (senescence), A2780; format: cell-based, human; conditions: 24 h, 10, 50, 100 μM tested
Method: as §2

A2780 = assay: LDH release assay, A2780; format: cell-based; conditions: Homo sapiens, 24 h; for IC50: CalcuSyn
Method: As per LDH release, the measurements were performed using the commercially available Pierce LDH Cytotoxicity Assay Kit (Pierce Biotechnology, Rockford, IL, USA). In this assay, cells with damaged plasma membranes release LDH into the culture environment; then the enzyme catalyses the conversion of lactate to pyruvate, which is accompanied by a reduction of NAD^+ to NADH. Afterwards, diaphorase uses NADH to reduce a tetrazolium salt to a formazan whose level is proportional to LDH activity. The absorbance emitted by the formazan was monitored at 490 nm with a reference wavelength of 680 nm.
as §6

HOSE cells [8] = assay: Cell proliferation (CFDA SE), HOSE cells; format: cell-based, human; conditions: 24 h, percentage of control cells
Method: Cell proliferative potential was determined using Cell Proliferation Kit I (PromoKine, Heidelberg, Germany) according to the manufacturer's instructions. In brief, cells were probed for 15 min with 5-(and 6)-carboxyfluorescein diacetate, a succinimidyl ester (CFDA SE; 2 μM) which diffuses into cells, covalently binds to proteins, and becomes fluorescent upon its hydrolysis by intracellular esterases. The fluorescence emitted by the cells (the dye is inherited by the daughter cells through successive divisions) was recorded using a Victor2 spectrofluorometer (Perkin-Elmer, Turku, Finland) with excitation at 435 nm and emission at 535 nm.

OVCAR-3 cells = assay: Apoptosis (Hoechst 33258), OVCAR-3; format: cell-based, human; conditions: 24 h, 10, 50, 100 μM tested
Method: as §5

[9] = tested on: superoxide dismutase (SOD); assay: SOD activity in cell lysates, OVCAR-3; format: cell-based, human; conditions: 24 h, 10, 50, 100 μM tested
Method: as §1

[10] = tested on: superoxide dismutase (SOD); assay: SOD activity in cell lysates, HOSE cells; format: cell-based, human; conditions: 24 h, percentage of control cells
Method: as §1

SKOV-3 cells = assay: Apoptosis (Hoechst 33258), SKOV-3; format: cell-based, human; conditions: 24 h, 10, 50, 100 μM tested
Method: as §5

A2780 cells [11] = assay: Apoptosis (Hoechst 33258), A2780; format: cell-based, human; conditions: 24 h, 10, 50, 100 μM tested
Method: as §5

HOSE cells [12] = assay: SA-β-Gal activity (senescence), HOSE cells; format: cell-based, human; conditions: 24 h, percentage of control cells
Method: as §2

[13] = 10 μM, percentage of control cells
[14] = 50 μM, percentage of control cells
[15] = 100 μM, percentage of control cells

| SMILES | CAT (catalase (CAT); 10 μM) | CAT (catalase (CAT); 50 μM) | CAT (catalase (CAT); 100 μM) | SA-β-Gal (HPMCs [1]; 10 μM) | SA-β-Gal (HPMCs [1]; 50 μM) [%] | SA-β-Gal (HPMCs [1]; 100 μM) [%] | p38 MAPK (p38 MAPK [2]; 10 μM) | p38 MAPK (p38 MAPK [2]; 50 μM) | p38 MAPK (p38 MAPK [2]; 100 μM) [%] | IC50 (HPMCs [3]) [µM] | Apoptosis (HOSE cells [4]; 10 μM) [%] | Apoptosis (HOSE cells [4]; 50 μM) [%] | Apoptosis (HOSE cells [4]; 100 μM) [%] | p38 MAPK activity (phosphorylated/total), effect in words (p38 MAPK [5]) | caspase-3 activity, effect in words (caspase-3) | Apoptosis (HPMCs [6]; 10 μM) [%] | Apoptosis (HPMCs [6]; 50 μM) [%] | Apoptosis (HPMCs [6]; 100 μM) [%] | IC50 (OVCAR-3) [µM] | SA-β-Gal activity (senescence), effect in words (A2780 cells [7]) | other results |
| --- | --- | --- | --- | --- | --- | --- | --- | --- | --- | --- | --- | --- | --- | --- | --- | --- | --- | --- | --- | --- | --- |
| Oc1ccc(/C=C/c2ccc(O)c(O)c2)cc1O [3,3′,4,4′-THS, 3,3′,4,4′-tetrahydroxy-trans-stilbene] | 112 ± 2^∗# % | 123 ± 4^∗# % | 154 ± 1^∗# % | 76 ± 3^∗# % | 104 ± 4 | 99 ± 3 | 82 ± 3^∗# % | 81 ± 6^∗# % | 104 ± 2 | 498 | 101 ± 1 | 100 ± 2 | 102 ± 2 | exerted upregulatory activity at 50 and 100 μM | increased the activity of the same caspases as RVT did | 98 ± 2 | 102 ± 2 | 100 ± 4 | 50 | increased SA-β-Gal at each dose, reaching the highest activity at as low a dose as 10 μM | viability at 10 µM (OVCAR-3; [13]): 75 ± 3%; viability at 50 µM (OVCAR-3; [14]): 50 ± 3%; viability at 100 µM (OVCAR-3; [15]): 48 ± 3%; viability at 10 µM (A2780; [13]): 42 ± 3%; viability at 50 µM (A2780; [14]): 26 ± 3%; viability at 100 µM (A2780; [15]): 22 ± 3%; IC50 (A2780): 6 µM; Proliferation (HOSE cells [8]; 10 μM): 116 ± 2^∗ %; Proliferation (HOSE cells [8]; 50 μM): 103 ± 1%; Proliferation (HOSE cells [8]; 100 μM): 99 ± 5%; incidence of apoptosis (rise in percentage of death cells), effect in words (OVCAR-3 cells): evident starting from the lowest concentration of 10 μM; SOD activity, effect in words [9]: increased SOD at 10 μM and decreased the activity of the enzyme at 50 and 100 μM; SOD ([10]; 10 μM): 122 ± 1^∗# %; SOD ([10]; 50 μM): 141 ± 5^∗# %; SOD ([10]; 100 μM): 136 ± 2^∗# %; incidence of apoptosis (rise in percentage of death cells), effect in words (SKOV-3 cells): evident starting from the lowest concentration of 10 μM; incidence of apoptosis (rise in percentage of death cells), effect in words (A2780 cells [11]): evident starting from the lowest concentration of 10 μM; SA-β-Gal (HOSE cells [12]; 10 μM): 99 ± 2%; SA-β-Gal (HOSE cells [12]; 50 μM): 101 ± 3%; SA-β-Gal (HOSE cells [12]; 100 μM): 102 ± 5% |
| Oc1ccc(/C=C/c2cc(O)cc(O)c2)cc1 [RVT, 3,4′,5-trihydroxy-trans-stilbene, reference compound] | 101 ± 1% | 103 ± 4% | 118 ± 3^∗ % | 100 ± 2% | 102 ± 4 | 100 ± 1 | 113 ± 16% | 103 ± 2% | 105 ± 7 | 495 | 99 ± 2 | 101 ± 2 | 102 ± 3 | failed to activate p38 MAPK | activated caspases 9 and 3, and this activity was evident at 50 and 100 μM | 101 ± 1 | 101 ± 1 | 98 ± 3 | 480 | did not change | IC50 (A2780): 65 µM; Proliferation (HOSE cells [8]; 10 μM): 103 ± 4%; Proliferation (HOSE cells [8]; 50 μM): 102 ± 1%; Proliferation (HOSE cells [8]; 100 μM): 104 ± 2%; incidence of apoptosis (rise in percentage of death cells), effect in words (OVCAR-3 cells): at 100 μM for the OVCAR-3 cells; SOD activity, effect in words [9]: upregulated activity of the enzyme; SOD ([10]; 10 μM): 111 ± 3^∗ %; SOD ([10]; 50 μM): 112 ± 3^∗ %; SOD ([10]; 100 μM): 121 ± 4^∗ %; incidence of apoptosis (rise in percentage of death cells), effect in words (SKOV-3 cells): exhibiting its impact at concentrations of 50 and 100 μM for the A2780 and SKOV-3 cells; incidence of apoptosis (rise in percentage of death cells), effect in words (A2780 cells [11]): exhibiting its impact at concentrations of 50 and 100 μM for the A2780 and SKOV-3 cells; SA-β-Gal (HOSE cells [12]; 10 μM): 101 ± 2%; SA-β-Gal (HOSE cells [12]; 50 μM): 101 ± 2%; SA-β-Gal (HOSE cells [12]; 100 μM): 100 ± 3% |
